Measured values as given in US11053204B2, “Pyrimidinyloxy benzene derivatives as herbicides” (FMC Corporation, priority 2015, dated 2021).

How the values were obtained:
Format in all cases: in vivo
[1] = test system: barnyardgrass (Echinochloa crus-galli); assay: Test B flooded paddy test, plant response rating; conditions: 250 g ai/ha; Flood; scale of 0 to 100 where 0 is no effect and 100 is complete control; 13 to 15 days
Text: (§1) At time of treatment, test pots were flooded to 3 cm above the soil surface, treated by application of test compounds directly to the paddy water, and then maintained at that water depth for the duration of the test. Treated plants and controls were maintained in a greenhouse for 13 to 15 days, after which time all species were compared to controls and visually evaluated. […] A dash (-) response means no test result.

[2] = test system: sedge, umbrella (small-flower umbrella sedge, Cyperus difformis); assay: Test B flooded paddy test, plant response rating; conditions: 250 g ai/ha; Flood; scale of 0 to 100 where 0 is no effect and 100 is complete control; 13 to 15 days
Text: as §1

rice (Oryza sativa) = assay: Test B flooded paddy test, plant response rating; conditions: 250 g ai/ha; Flood; scale of 0 to 100 where 0 is no effect and 100 is complete control; 13 to 15 days
Text: as §1

[3] = test system: ducksalad (Heteranthera limosa); assay: Test B flooded paddy test, plant response rating; conditions: 250 g ai/ha; Flood; scale of 0 to 100 where 0 is no effect and 100 is complete control; 13 to 15 days
Text: as §1

[4] = test system: barnyardgrass (Echinochloa crus-galli); assay: Test A postemergence, visual injury rating; conditions: 0 is no effect, 100 is complete control; for Barnyardgrass plant response rating: 31 g ai/ha, 0 to 100 scale, approximately 10 days; for Barnyardgrass plant response rating (0 to 100 scale): 125 g ai/ha
Text: (§2) Seeds of plant species selected from barnyardgrass (Echinochloa crus-galli), kochia (Kochia scoparia), ragweed (common ragweed, Ambrosia elatior), Italian ryegrass (Lolium multiflorum), large (Lg) crabgrass (Digitaria sanguinalis), giant foxtail (Setaria faberii), morningglory (Ipomoea spp.), pigweed (Amaranthus retroflexus), velvetleaf (Abutilon theophrasti), wheat (Triticum aestivum), and corn (Zea mays) were planted into a blend of loam soil and sand and treated preemergence with a directed soil spray using test chemicals formulated in a non-phytotoxic solvent mixture which included a surfactant.
(§3) At the same time, plants selected from these crop and weed species and also blackgrass (Alopecurus myosuroides), and galium (catchweed bedstraw, Galium aparine) were planted in pots containing the same blend of loam soil and sand and treated with postemergence applications of test chemicals formulated in the same manner. Plants ranged in height from 2 to 10 cm and were in the one- to two-leaf stage for the postemergence treatment. Treated plants and untreated controls were maintained in a greenhouse for approximately 10 days, after which time all treated plants were compared to untreated controls and visually evaluated for injury. Plant response ratings, summarized in Table A, are based on a 0 to 100 scale where 0 is no effect and 100 is complete control. A dash (-) response means no test result.

corn (Zea mays) = assay: Test A postemergence, visual injury rating; conditions: 0 is no effect, 100 is complete control; for Corn plant response rating: 31 g ai/ha, 0 to 100 scale, approximately 10 days; for Corn plant response rating (0 to 100 scale): 125 g ai/ha
Text: as §2, §3

kochia (Kochia scoparia) [5] = assay: Test A postemergence, visual injury rating; conditions: 0 is no effect, 100 is complete control; for Kochia plant response rating: 31 g ai/ha, 0 to 100 scale, approximately 10 days; for Kochia plant response rating (0 to 100 scale): 125 g ai/ha
Text: as §2, §3

[6] = test system: blackgrass (Alopecurus myosuroides); assay: Test A postemergence, visual injury rating; conditions: 0 is no effect, 100 is complete control; for Blackgrass plant response rating: 31 g ai/ha, 0 to 100 scale, approximately 10 days; for Blackgrass plant response rating (0 to 100 scale): 125 g ai/ha
Text: as §2, §3

[7] = test system: wheat (Triticum aestivum); assay: Test A postemergence, visual injury rating; conditions: 0 is no effect, 100 is complete control; for Wheat plant response rating: 31 g ai/ha, 0 to 100 scale, approximately 10 days; for Wheat plant response rating (0 to 100 scale): 125 g ai/ha
Text: as §2, §3

[8] = test system: pigweed (Amaranthus retroflexus); assay: Test A postemergence, visual injury rating; conditions: 0 is no effect, 100 is complete control; for Pigweed plant response rating: 31 g ai/ha, 0 to 100 scale, approximately 10 days; for Pigweed plant response rating (0 to 100 scale): 125 g ai/ha
Text: as §2, §3

[9] = test system: giant foxtail (Setaria faberii); assay: Test A postemergence, visual injury rating; conditions: 0 is no effect, 100 is complete control; for Foxtail, Giant plant response rating: 31 g ai/ha, 0 to 100 scale, approximately 10 days; for Foxtail, Giant plant response rating (0 to 100 scale): 125 g ai/ha
Text: as §2, §3

[10] = test system: galium (catchweed bedstraw, Galium aparine); assay: Test A postemergence, visual injury rating; conditions: 0 is no effect, 100 is complete control; for Galium plant response rating: 31 g ai/ha, 0 to 100 scale, approximately 10 days; for Galium plant response rating (0 to 100 scale): 125 g ai/ha
Text: as §2, §3

[11] = test system: ragweed (common ragweed, Ambrosia elatior); assay: Test A postemergence, visual injury rating; conditions: 0 is no effect, 100 is complete control; for Ragweed plant response rating: 31 g ai/ha, 0 to 100 scale, approximately 10 days; for Ragweed plant response rating (0 to 100 scale): 125 g ai/ha
Text: as §2, §3

[12] = test system: Italian ryegrass (Lolium multiflorum); assay: Test A postemergence, visual injury rating; conditions: 0 is no effect, 100 is complete control; for Ryegrass, Italian plant response rating: 31 g ai/ha, 0 to 100 scale, approximately 10 days; for Ryegrass, Italian plant response rating (0 to 100 scale): 125 g ai/ha
Text: as §2, §3

[13] = test system: barnyardgrass (Echinochloa crus-galli); assay: Test A preemergence, visual injury rating; conditions: for Plant response rating, Barnyardgrass: 31 g ai/ha, 0 to 100 scale, 0 no effect, 100 complete control; for Barnyardgrass plant response rating: 125 g ai/ha, 0 to 100 scale (0 no effect, 100 complete control)
Text: as §2, §3

kochia (Kochia scoparia) [14] = assay: Test A preemergence, visual injury rating; conditions: for Plant response rating, Kochia: 31 g ai/ha, 0 to 100 scale, 0 no effect, 100 complete control; for Kochia plant response rating: 125 g ai/ha, 0 to 100 scale (0 no effect, 100 complete control)
Text: as §2, §3

[15] = test system: pigweed (Amaranthus retroflexus); assay: Test A preemergence, visual injury rating; conditions: for Plant response rating, Pigweed: 31 g ai/ha, 0 to 100 scale, 0 no effect, 100 complete control; for Pigweed plant response rating: 125 g ai/ha, 0 to 100 scale (0 no effect, 100 complete control)
Text: as §2, §3

[16] = test system: giant foxtail (Setaria faberii); assay: Test A preemergence, visual injury rating; conditions: for Plant response rating, Foxtail, Giant: 31 g ai/ha, 0 to 100 scale, 0 no effect, 100 complete control; for Foxtail, Giant plant response rating: 125 g ai/ha, 0 to 100 scale (0 no effect, 100 complete control)
Text: as §2, §3

[17] = test system: ragweed (common ragweed, Ambrosia elatior); assay: Test A preemergence, visual injury rating; conditions: for Plant response rating, Ragweed: 31 g ai/ha, 0 to 100 scale, 0 no effect, 100 complete control; for Ragweed plant response rating: 125 g ai/ha, 0 to 100 scale (0 no effect, 100 complete control)
Text: as §2, §3

[18] = test system: Italian ryegrass (Lolium multiflorum); assay: Test A preemergence, visual injury rating; conditions: for Plant response rating, Ryegrass, Italian: 31 g ai/ha, 0 to 100 scale, 0 no effect, 100 complete control; for Ryegrass, Italian plant response rating: 125 g ai/ha, 0 to 100 scale (0 no effect, 100 complete control)
Text: as §2, §3

SMILES | Plant response rating, Barnyardgrass [1] | Plant response rating, Sedge, Umbrella [2] | Plant response rating, Rice (rice (Oryza sativa)) | Plant response rating, Ducksalad [3] | Barnyardgrass plant response rating [4] | Barnyardgrass plant response rating (0 to 100 scale) [4] | Corn plant response rating (corn (Zea mays)) | Corn plant response rating (0 to 100 scale) (corn (Zea mays)) | Kochia plant response rating (kochia (Kochia scoparia) [5]) | Kochia plant response rating (0 to 100 scale) (kochia (Kochia scoparia) [5]) | Blackgrass plant response rating [6] | Blackgrass plant response rating (0 to 100 scale) [6] | Wheat plant response rating [7] | Wheat plant response rating (0 to 100 scale) [7] | Pigweed plant response rating [8] | Pigweed plant response rating (0 to 100 scale) [8] | Foxtail, Giant plant response rating [9] | Foxtail, Giant plant response rating (0 to 100 scale) [9] | Galium plant response rating [10] | Galium plant response rating (0 to 100 scale) [10] | also measured
CC(C)COC(=O)c1c(Br)cccc1Oc1ncc(Cl)cn1 [Compound 1] | 0 | 80 | 0 | 20 | 20 | 30 | 0 | 20 | 20 | 30 | 0 | 20 | 0 | 0 | 40 | 70 | 30 | 60 | 50 | 70 | Ragweed plant response rating [11]: 0; Ragweed plant response rating (0 to 100 scale) [11]: 10; Ryegrass, Italian plant response rating [12]: 0; Ryegrass, Italian plant response rating (0 to 100 scale) [12]: 0; Plant response rating, Barnyardgrass [13]: 20; Barnyardgrass plant response rating [13]: 30; Plant response rating, Kochia (kochia (Kochia scoparia) [14]): 0; Kochia plant response rating (kochia (Kochia scoparia) [14]): 40; Plant response rating, Pigweed [15]: 20; Pigweed plant response rating [15]: 70; Plant response rating, Foxtail, Giant [16]: 30; Foxtail, Giant plant response rating [16]: 70; Plant response rating, Ragweed [17]: 0; Ragweed plant response rating [17]: 0; Plant response rating, Ryegrass, Italian [18]: 0; Ryegrass, Italian plant response rating [18]: 0
C=C(Cl)COC(=O)c1c(Br)cccc1Oc1ncc(Cl)cn1 [Compound 2] | 0 | 100 | 0 | 30 | 30 | 40 | 10 | 20 | 50 | 90 | 0 | 30 | 0 | 0 | 60 | 80 | 30 | 60 | 60 | 90 | Ragweed plant response rating [11]: 0; Ragweed plant response rating (0 to 100 scale) [11]: 0; Ryegrass, Italian plant response rating [12]: 0; Ryegrass, Italian plant response rating (0 to 100 scale) [12]: 20; Plant response rating, Barnyardgrass [13]: 10; Barnyardgrass plant response rating [13]: 50; Plant response rating, Kochia (kochia (Kochia scoparia) [14]): 30; Kochia plant response rating (kochia (Kochia scoparia) [14]): 70; Plant response rating, Pigweed [15]: 40; Pigweed plant response rating [15]: 90; Plant response rating, Foxtail, Giant [16]: 70; Foxtail, Giant plant response rating [16]: 100; Plant response rating, Ragweed [17]: 0; Ragweed plant response rating [17]: 0; Plant response rating, Ryegrass, Italian [18]: 0; Ryegrass, Italian plant response rating [18]: 10
C=C(C)COC(=O)c1c(Br)cccc1Oc1ncc(Cl)cn1 [Compound 3] | 0 | 100 | 0 | 30 | 20 | 60 | 0 | 30 | 0 | 40 | 0 | 30 | 0 | 0 | 70 | 100 | 30 | 80 | 40 | 70 | Ragweed plant response rating [11]: 0; Ragweed plant response rating (0 to 100 scale) [11]: 0; Ryegrass, Italian plant response rating [12]: 0; Ryegrass, Italian plant response rating (0 to 100 scale) [12]: 30; Plant response rating, Barnyardgrass [13]: 60; Barnyardgrass plant response rating [13]: 80; Plant response rating, Kochia (kochia (Kochia scoparia) [14]): 0; Kochia plant response rating (kochia (Kochia scoparia) [14]): 40; Plant response rating, Pigweed [15]: 50; Pigweed plant response rating [15]: 100; Plant response rating, Foxtail, Giant [16]: 70; Foxtail, Giant plant response rating [16]: 100; Plant response rating, Ragweed [17]: 0; Ragweed plant response rating [17]: 0; Plant response rating, Ryegrass, Italian [18]: 0; Ryegrass, Italian plant response rating [18]: 30
